In US9376499B2, “PAR-1 activation by metalloproteinase-1 (MMP-1)” (Tufts Medical Center, Inc., priority 2009, dated 2016):
Non-standard residues stand in square brackets, D forms with d. Residues, ends and D or L forms follow the SMILES beside them. No end group written: not given here. *: point of attachment. 4Abz = Nc1ccc(C(=O)O)cc1; NHOH = ON*

Assays:
PAR1 = assay: Release of PAR1 N-terminal cleavage peptide from gel-filtered platelets (dot blot, IIaR-A antibody); type: cell-based, human
From the text: To further understand how collagen is able to activate significant amounts of endogenous MMP-1 collagenase activity on the surface of platelets, experiments were devised to determine if PAR-1 is cleaved in either an autocrine or paracrine manner following exposure to collagen. Using a monoclonal antibody raised against the amino-terminal thrombin-cleavage peptide region of PAR1, residues 32-46 (Loew et al., 2000), the relative abilities of thrombin, MMP-1 and collagen to cause cleavage of platelet PAR1 was assessed. Gel filtered platelets were treated for 10 min with thrombin (3 nM), MMP-1 (3 nM), collagen (5 μg/ml), in the presence or absence (PBS buffer) of 0.00013 U hirudin or 5 μM FN-439 at 37° C. Supernatants were concentrated 20-fold and applied to nitrocellulose membranes, then probed with the IIaR-A monoclonal antibody. The PAR1 N-terminal thrombin deavage peptide (A26-R41) and PAR1 flexible linker peptide (N-acetyl-T67-L84 -C) (Kuliopulos et al., 1999) served as positive and negative controls (100 ng), respectively.
These platelets were then stimulated with collagen (5 μg/ml) for 10 min. at 37° C. Supernatants were concentrated 20-fold and applied to nitrocellulose membranes, then probed with the IIaR-A monoclonal antibody. […] FN-439, or an MMP1-blocking antibody (20 μg/ml) but not by thrombin inhibitor, hirudin (see FIG. 1E, FIG. 1G).

[1] = Atherosclerotic lesion area in ApoE-deficient mice (en face Oil-Red-O); type: in vivo, mouse; conditions: high-fat diet 15 weeks, s.c. 6 days a week, FN-439 5 mg/kg, P1pal-7 10 mg/kg; for mean lesion area, abdominal section of the aorta: vehicle 8.9%; for mean lesion area, aortic section, % of the total area: vehicle 12.9%
Protocol: Twenty five (25) 86.129P2-Apoe^fm1Unc/J mice, 7 weeks old, were separated into 3 groups and fed ad libitum with high-fat/high-cholesterol diet (21% fat, 0.21% cholesterol) (0120798, Research Diets) for 15 weeks. Group I included 8 mice (n=8) was used as a control group and received Vehicle (20% DMSO in 1×PBS). Group II included 8 mice (n=8) that were treated with MMP Inhibitor I FN-439 (Calbiochem) at a dose of 5 mg/kg. Lastly, group III included 9 mice (n=9) treated with 10 mg/kg of the P1pal-7 pepducin lipopeptide. […] P1pal-7 is a cell-penetrating pepducin lipopeptide based on the third intracellular loop (i3) of human PAR1 and acts as an antagonist of PAR1 signaling. All mice were injected subcutaneously with 100 μl of the corresponding treatment for 6 days a week. At the end of the treatment, and after a 4 hours fasting, the mice were anesthetized with ketamine/xylazine and pressure-fixed with 10% formalin. The heart and the aorta of each mouse were isolated, removed and fixed for 2 days in 10% formalin and adventitial fat was removed. The abdominal area of the aorta was cut and used for whole mount immunohistochemistry. The “aortic arch/thoracic” area and the rest of the “abdominal/iliac” area of the aorta were cut open and pinned on dissecting black wax and used for “en face” staining with Oil-Red-O.
To study the extent of artherosderotic plaque formation, pinned aortas were first fixed in 10% formalin and kept in 1×PBS. The aorta of the mice were then subjected to “en face” staining with Oil-Red-O, which stains lipids red. Briefly, the PBS was drained from the samples and the stain solution was added for 45 min. The stain was drained and the samples were washed first with 70% Ethanol and then with water, in order to remove the background. Digital pictures of the stained aortas were taken and the MetaXpress software (Molecular Devices) was used to define and quantify the total aortic area as well as the lesion areas. The ratio of lesion area to the total aortic area was calculated for the “aortic arch/thoracic” and the “abdominal/iliac” area. The aorta of each mouse was isolated and separated into three sections. The abdominal section (before and after the renal arteries) was separated and used for whole mount immunohistochemistry. The remaining sections were the one from the aortic arch to the mesenteric artery (aortic) and the other from after the renal arteries to the iliac arteries (abdominal). These sections of the aorta were used for the “en face” staining and the estimation of the atherosclerotic lesion area.

MMP-1 = molecular target: T1, MMP-1 (Cavia porcellus, UniProt H0V812); assay: Collagen zymography of arterial clots from FeCl3-injured carotid arteries; type: in vivo, guinea pig
T1 construct: endogenous in cells; host or cells: platelets of Hartley guinea pigs
T1 sequence (H0V812 1-472): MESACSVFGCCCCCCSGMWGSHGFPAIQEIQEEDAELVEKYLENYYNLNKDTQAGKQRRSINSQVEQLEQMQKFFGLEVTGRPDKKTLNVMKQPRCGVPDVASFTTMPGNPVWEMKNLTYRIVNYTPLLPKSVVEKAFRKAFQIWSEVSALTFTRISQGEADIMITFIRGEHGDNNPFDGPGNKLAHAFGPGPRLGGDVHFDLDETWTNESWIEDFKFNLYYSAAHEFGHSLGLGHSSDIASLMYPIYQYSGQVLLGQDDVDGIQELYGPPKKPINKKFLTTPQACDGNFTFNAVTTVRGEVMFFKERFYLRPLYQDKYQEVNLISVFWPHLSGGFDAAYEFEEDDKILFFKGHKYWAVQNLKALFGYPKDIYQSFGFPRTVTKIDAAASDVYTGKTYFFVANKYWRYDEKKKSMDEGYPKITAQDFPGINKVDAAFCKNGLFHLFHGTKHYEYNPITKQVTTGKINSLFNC
Protocol: MMP-1 activity with the dots was determined by collagent zymography (see FIG. 6H). Platelets were isolated from guinea pigs and stimulated with 20 μg/ml collagen for 15 min and platelet supernatants and pellets, or whole resting platelets (control), prepared as described Above. Samples were resolved on a 8% type I collagen/acrylamide zymography gel and collagenase zymogram was developed as described by (Gogly et al., 1998) or immunoblotted with MMP1-Ab, AB806. Arterial dots were also removed from the Fe—Cl irnjured carotid arteries from animals (n=5) treated with FN-439 (FN439 clot) or vehicle (veh dot) as in 6F and 6G and dots were dissolved in lysis buffer and passed 5× through a 21-gauge needle. The lysates were centrifuged and supernatents resolved on the zymography gel. The two lanes on the left side of the western blot have 20 ng of proMMP-1 or 20 ng APMA-activated MMP-1, and the right hand lane in the zymogram has 0.5 μg of APMA-activated human MMP-1.

platelets = assay: Collagen-dependent aggregation of gel-filtered human platelets (light transmittance); type: cell-based; conditions: 5 μg/ml collagen; 1,10-PA 100 μM, MMP-200 200 nM, FN-439 3 μM, RWJ-56110 1 μM, PAR1 Ab 75 μg/ml, pepducins 3 μM, PPACK 200 μM, hirudin 1 U/ml
Protocol: Platelet pellets and their supernatants were prepared as follows. […] following established informed consent procedures. […] Alternatively, whole blood was obtained from Hartley Sprague guinea pigs (drawn from the vena cava) into 3% citrate plus 10 U/ml heparin. Washed platelets from the guinea pigs were prepared in PIPES buffer. Platelet aggregation was measured with a Chronolog 560VS/490-2D aggregometer using modified PIPES buffer as a blank. Samples were incubated for 5 min in the presence of inhibitors and 1.8 mM CaCl2 prior to addition of agonist. All reactions were in final volumes of 250 μl at 37° C. while stirring at 900 rpm.
The effect of pharmacologic blockage of metalloproteases or PAR1 on collagen-dependent platelet aggregation was then tested (see FIG. 5). Gel-filtered platelets from healthy individuals (supplemented with 0.3 mg/ml fibrinogen) were challenged with 5 μg/ml collagen in the presence or absence (0.2% DMSO vehicle) of the indicated inhibitors and allowed to stir at 900 rpm in an aggregometer cuvette (250 μL) at 37° C.
In FIG. 5A, platelet aggregation was monitored by light transmittance.

Row | Compound | block of MMP-1-induced release of N-terminal cleavage peptide of PAR1 (PAR1; 3 nM MMP-1, 5 μM FN-439) | block of collagen-induced release of PAR1 N-terminal peptide (PAR1; 5 μg/ml collagen, 10 min, 37° C., Ab 20 μg/ml, ARC 0.5 μM, ASA 1 mM) | mean lesion area, abdominal section of the aorta [1] | mean lesion area, aortic section, % of the total area [1] | active MMP-1 in arterial thrombi of treated animals (MMP-1) | inhibition (loss) of collagen-induced platelet aggregation (platelets)
1 | CC(C)C[C@@H](NC(=O)[C@@H]1CCCN1C(=O)CNC(=O)c1ccc(N)cc1)C(=O)N[C@H](C)C(=O)NO [FN-439] (H-[4Abz]GP[dL][dA]-{NHOH}) | blocked | specifically blocked | 4.1% | 10.7% | did not contain active MMP-1 | 
2 | P1pal-7: PAR1 i3 loop pepducin lipopeptide, KKSRALF (SEQ ID NO. 2), palmitate (also: palmitate, site not given here) |  |  | 2.3% | 8.1% |  | identical levels of inhibition as blocking MMP-1
